# Structures can show the parent of a compound that is named as a salt.
# How the values were obtained:
# AMPKα = assay: Measurement of AMPK activation effect (AMPKα Thr172 phosphorylation immunoassay) in MCF7 cells; format: cell-based, human; settings: 24 hours; for AMPK activation effect at 10 μM (%) / AMPK activation effect at 50 μM (%): relative to untreated cells; for AMPK activation effect AC150: concentration at which AMPK activation reached 150%
# Method: MCF7 cells derived from human breast cancer cells (commercially available from the Korean Cell Line Bank) were used, and the AMPK activation effect of the biguanide derivative was confirmed using an AMPKα immunoassay kit (Invitrogen, Catalog No. KHO0651).
# MCF7 cells were cultured in a DMEM medium supplemented with 10% fetal bovine serum. Thereafter, the cultured MCF7 cells were put into a 6-well plate with approximately 5×10^5 cells per well and cultured in an incubator supplied with 5% CO2. Culture media were treated with the derivatives synthesized in the examples at contents of 5, 10 and 50 μM, and then cultured for 24 hours. Metformin hydrochloride was used as the control, and the culture media were treated with 0.05, 0.5, 1, 2, 5 and 10 mM metformin hydrochloride, and then tested in the same manner as described in the derivatives synthesized in the examples. Subsequently, the cells were lysed according to a method presented in the operation manual of the AMPKα immunoassay kit, and 20 μg of a cell lysate was then yielded through protein assay. Thereafter, the AMPK activation effect was obtained by determining the degree of phosphorylation of 172nd threonine residue (Thr172) of the AMPKα from the cell lysate according to the method presented in the operation manual of the AMPKα immunoassay kit. […] A curve graph showing AMPK activation according to the concentration of the treated compounds was plotted based on the obtained AMPKα activation results, the concentration (activation concentration 150, AC150) value of the compound whose AMPK activation reached 150% was calculated using a GraphPad Prism 5.0 program, and the degrees of AMPK activation were obtained when concentrations of the treated biguanide derivatives were 10 μM and 50 μM and the metformin hydrochloride was 50 μM
# HCT116 cells = assay: Measurement of effect of inhibiting cancer cell proliferation (MTT); format: cell-based, human; settings: for inhibition at 100 µM: HCT-116, 100 μM, read-out: Cell Growth Inhibition (%) at 100 μM
# Excerpt: HCT116 cells derived from human colorectal cancer (commercially available from the Korean Cell Line Bank) were used, and the effect of inhibiting cancer cell proliferation of the biguanide derivative was confirmed by measuring the concentration value (cell growth inhibition concentration, GIC50) at which cell growth was inhibited by 50% using a 3-(4,5-dimethylthiazol-2-yl)-2,5-diphenyltetrazolium bromide (MTT) reagent.
# First, HCT116 cells were put on a 96-well plate and cultured in a DMEM medium containing 10% fetal bovine serum for 16 hours so that the cellcount in each well was approximately 5,000. Subsequently, to obtain the GIC50 value of each compound, culture media were treated with 100 μM, 25 μM, 6.25 μM, 1.56 μM or 0.39 μM of the compound, and then cultured for 48 hours. Metformin hydrochloride was used as the control, and the culture media were treated with 25, 12.5, 2.5, 0.5, 0.1 mM metformin hydrochloride, and then tested in the same manner as described in the derivatives synthesized in the examples. In order to determine whether the cells survived after treatment with the compounds, MTT was added to the culture media which were then cultured for another 3 hours. Formed formazane crystals were dissolved using dimethyl sulfoxide (DMSO), and the absorbance of the resulting solution was measured at 560 nm. After the 48-hour culture, […] was indicated as cell viability (%) according to each treated concentration. A cell viability curve graph was plotted and the concentration (GIC50) value of the compound at which the growth was inhibited by 50% was calculated to confirm the inhibition effect of cancer cell proliferation. Also, the cell growth viability (%) when the concentration of the treated biguanide derivative and the metformin hydrochloride as the control were 100 μM was shown.
Structure (SMILES),AMPK activation effect at 10 μM (%) (AMPKα),AMPK activation effect AC150 (AMPKα),melting point,"inhibition at 100 µM (HCT116 cells; Homo sapiens, 48 hours)","GI50 (HCT116 cells; Homo sapiens, HCT-116, 48 h)",AMPK activation effect at 50 μM (%) (AMPKα),"Cell Growth Inhibition (%) at 100 μM (HCT116 cells; 100 μM, 48 hours)",GI50 (HCT116 cells; 48 hours)
"Cl.N=C(NC(=N)N1CCCCC1)Nc1cccc(Br)c1 [Example 7, N1-piperidine-N5-(3-bromo)phenyl biguanide hydrochloride]",526%,0.9 µM,263 to 264 °C,97.2%,7 µM,,,
"Cl.N=C(NC(=N)N1CCC1)Nc1ccc(OC(F)(F)F)cc1 [Example 31, N1-azetidine-N5-(4-trifluoromethoxy)phenyl biguanide hydrochloride]",145%,15.3 µM,257 to 259 °C,96.5%,22.9 µM,232%,,
"Cl.N=C(NC(=N)N1CCCC1)Nc1cccc(C(F)(F)F)c1 [Example 23, N1-pyrrolidine-N5-(3-trifluoromethyl)phenyl biguanide hydrochloride]",199%,4.4 µM,286 to 287 °C,97.6%,38.9 µM,578%,,
"Cl.N=C(NC(=N)N1CCCCC1)Nc1cccc(OC(F)(F)F)c1 [Example 29, N1-piperidine-N5-(3-trifluoromethoxy)phenyl biguanide hydrochloride]",400%,1.1 µM,264 to 266 °C,98%,5.9 µM,,,
"Cl.N=C(NC(=N)N1CCOCC1)Nc1ccc(OC(F)(F)F)cc1 [Example 34, N1-morpholine-N5-(4-trifluoromethoxy)phenyl biguanide hydrochloride]",121%,33.7 µM,263 to 264 °C,98%,47.3 µM,168%,,
"Cl.N=C(NC(=N)N1CCCCC1)Nc1ccc(Cl)c(Cl)c1 [Example 64, N1-piperidine-N5-(3,4-dichloro)phenyl biguanide hydrochloride]",442%,0.7 µM,267 to 269 °C,101%,6.4 µM,,,
"Cl.N=C(NC(=N)N1CCCCC1)Nc1cccc(N)c1 [Example 36, N1-piperidine-N5-(3-amino)phenyl biguanide hydrochloride]",62%,36.8 µM,220 to 222 °C,43.6%,> 100 µM,175%,,
"Cl.N=C(NC(=N)N1CCCC1)Nc1ccc(Cl)c(Cl)c1 [Example 63, N1-pyrrolidine-N5-(3,4-dichloro)phenyl biguanide hydrochloride]",261%,6.2 µM,282 to 283 °C,97.6%,8.7 µM,,,
"Cc1cccc(NC(=N)NC(=N)N2CCCCC2)c1.Cl [Example 9, N1-piperidine-N5-(3-methyl)phenyl biguanide hydrochloride]",149%,12.4 µM,239 to 240 °C,79.1%,13.4 µM,255%,,
"Cl.N=C(NC(=N)N1CCCCC1)Nc1cc(F)c(F)c(F)c1 [Example 68, N1-piperidine-N5-(3,4,5-trifluoro)phenyl biguanide hydrochloride]",197%,7.2 µM,248 to 249 °C,97.6%,13.8 µM,,,
"Cl.N=C(NC(=N)N1CCCCC1)Nc1ccc(OC(F)(F)F)c(Cl)c1 [Example 57, N1-piperidine-N5-(3-chloro-4-trifluoromethoxy)phenyl biguanide hydrochloride]",345%,3.2 µM,261 to 262 °C,96.3%,2.6 µM,,,
"Cl.N=C(NC(=N)N1CCCCC1)Nc1cc(Cl)cc(Cl)c1 [Example 61, N1-piperidine-N5-(3,5-dichloro)phenyl biguanide hydrochloride]",239%,3.3 µM,230 to 231 °C,97.7%,7.1 µM,,,
"Cl.N=C(NC(=N)N1CCCCC1)Nc1ccc(F)cc1 [Example 14, N1-piperidine-N5-(4-fluoro)phenyl biguanide hydrochloride]",204%,4.0 µM,269 to 270 °C,49.7%,> 100 µM,429%,,
"N=C(NC(=N)N1CCCCC1)Nc1ccc(C(F)(F)F)c(F)c1 (as salt: acetate) [Example 75, N1-piperidine-N5-(3-fluoro-4-trifluoromethyl)phenyl biguanide acetate]",,,206 to 208 °C,,,,,
"Cl.N=C(NC(=N)N1CCCCC1)Nc1ccc(S(=O)(=O)O)cc1 [Example 42, N1-piperidine-N5-(4-sulfonic acid)phenyl biguanide hydrochloride]",68%,>50 µM,,23.2%,> 100 µM,97%,,
"N=C(NC(=N)N1CCCCC1)Nc1ccc(C(F)(F)F)cc1 (as salt: acetate) [Example 71, N1-piperidine-N5-(4-trifluoromethyl)phenyl biguanide acetate]",,,198 to 200 °C,,,,,
"N=C(NC(=N)N1CCCCC1)Nc1ccc(OC(F)(F)F)cc1 (as salt: acetate) [Example 73, N1-piperidine-N5-(4-trifluoromethoxy)phenyl biguanide acetate]",,,200 to 202 °C,,,,,
"N=C(NC(=N)N1CCCCC1)Nc1ccc(OC(F)(F)F)c(F)c1 (as salt: acetate) [Example 77, N1-piperidine-N5-(3-fluoro-4-trifluoromethoxy)phenyl biguanide acetate]",,,202 to 204 °C,,,,,
"Cl.N=C(NC(=N)N1CCCCC1)Nc1cccc(OC(F)F)c1 [Example 30, N1-piperidine-N5-(3-difluoromethoxy)phenyl biguanide hydrochloride]",187%,6.4 µM,,,,636%,97.9%,33.7 µM
"Cl.N=C(NC(=N)N1CCCCC1)Nc1ccc(S(N)(=O)=O)cc1 [Example 44, N1-piperidine-N5-(4-sulfamoyl)phenyl biguanide hydrochloride]",119%,>50 µM,,32.6%,> 100 µM,114%,,
"Cl.N=C(NC(=N)N1CCCC1)Nc1ccc(OC(F)(F)F)c(Cl)c1 [Example 56, N1-pyrrolidine-N5-(3-chloro-4-trifluoromethoxy)phenyl biguanide hydrochloride]",367%,2.0 µM,,101%,4.6 µM,,,
"N=C(NC(=N)N1CCCC1)Nc1ccc(OC(F)(F)F)c(F)c1 (as salt: acetate) [Example 76, N1-pyrrolidine-N5-(3-fluoro-4-trifluoromethoxy)phenyl biguanide acetate]",,,203 to 205 °C,,,,,
"N=C(NC(=N)N1CCCC1)Nc1ccc(C(F)(F)F)c(F)c1 (as salt: acetate) [Example 74, N1-pyrrolidine-N5-(3-fluoro-4-trifluoromethyl)phenyl biguanide acetate]",,,204 to 205 °C,,,,,
